Source: patent US10030020B2, “Spirocycle compounds and methods of making and using same” (Abide Therapeutics, Inc., priority 2016, dated 2018)

What was measured:
[1] = biological target: T1, FAAH (Mus musculus (Mouse), UniProt O08914); experiment: In vitro competitive activity-based protein profiling (mouse brain membrane fraction or cell lysates), FAAH band; format: biochemical; conditions: mouse proteome; for inhibition at 1 µM: read-out: FAAH % Inh 1 μM (mouse); for IC50: competitive ABPP
Method in brief: (§1)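 Mouse proteome samples (brain membrane fraction or cell lysate, 1.0 mg/mL protein) were pretreated with varying inhibitor concentrations and subsequently probed with fluorophosphonate-rhodamine, each step lasting 30 min at 37° C. Labelled proteins were separated by SDS-PAGE, and band fluorescence was imaged and quantified.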

[2] = biological target: T2, ABHD6 (Mus musculus (Mouse), UniProt Q8R2Y0); experiment: Mouse brain proteomes from inhibitor treated mice (oral gavage, sacrificed 4 h after administration, ABPP analysis), ABHD6; format: in vivo, mouse (C57Bl/6J); conditions: 5 mg/kg oral gavage
Method in brief: (§2)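 Percent inhibition in brain tissue measured by ABPP 4 h after a single oral gavage dose (5 mg/kg) to wild-type C57Bl/6J mice; vehicle was, for example, PEG400/Ethanol/PBS at 7/2/1.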

[3] = biological target: MAGL (Homo sapiens (Human), UniProt Q99685); experiment: In vitro competitive activity-based protein profiling (human prefrontal cortex or cell membrane fractions; hMAGL expressed in HEK293T cells); format: biochemical; conditions: human proteome, competitive ABPP
Protocol: In Vitro Competitive Activity-Based Protein Profiling (Human).
Proteomes (human prefrontal cortex or cell membrane fractions) (50 μL, 1.0-2.0 mg/mL total protein concentration) were preincubated with varying concentrations of inhibitors at 37° C. After 30 min, FP—Rh or JW912 (1.0 μL, 50 μM in DMSO) was added and the mixture was incubated for another 30 min at room temperature. Reactions were quenched with SDS loading buffer (15 μL-4×) and run on SDS-PAGE.
Recombinant Expression of Human MAGL in HEK293T Cells.
Cell lysates were diluted with mock proteomes for use in competitive ABPP experiments.

[4] = biological target: T1, FAAH; experiment: Mouse brain proteomes from inhibitor treated mice (oral gavage, sacrificed 4 h after administration, ABPP analysis), FAAH; format: in vivo, mouse (C57Bl/6J); conditions: 5 mg/kg oral gavage
Method in brief: as §2

[5] = biological target: T3, MAGL (Mus musculus (Mouse), UniProt O35678); experiment: Mouse brain proteomes from inhibitor treated mice (oral gavage, sacrificed 4 h after administration, ABPP analysis); format: in vivo, mouse (C57Bl/6J); conditions: 5 mg/kg oral gavage
Method in brief: as §2

[6] = biological target: T2, ABHD6; experiment: In vitro competitive activity-based protein profiling (mouse brain membrane fraction or cell lysates), ABHD6 band; format: biochemical; conditions: mouse proteome; for inhibition at 1 µM: read-out: ABHD6 % Inh 1 μM (mouse); for IC50: competitive ABPP
Method in brief: as §1

[7] = biological target: T3, MAGL; experiment: In vitro competitive activity-based protein profiling (mouse brain membrane fraction or cell lysates), MAGL band; format: biochemical; conditions: mouse proteome; for inhibition at 1 µM: read-out: MAGL % Inh 1 μM (mouse); for IC50: competitive ABPP
Protocol: In Vitro Competitive Activity-Based Protein Profiling.
Proteomes (mouse brain membrane fraction or cell lysates) (50 μL, 1.0 mg/mL total protein concentration) were preincubated with varying concentrations of inhibitors at 37° C. After 30 min, FP—Rh (1.0 μL, 50 μM in DMSO) was added and the mixture was incubated for another 30 min at 37° C. Reactions were quenched with SDS loading buffer (50 μL-4×) and run on SDS-PAGE.

T2 sequence (Q8R2Y0 whole entry): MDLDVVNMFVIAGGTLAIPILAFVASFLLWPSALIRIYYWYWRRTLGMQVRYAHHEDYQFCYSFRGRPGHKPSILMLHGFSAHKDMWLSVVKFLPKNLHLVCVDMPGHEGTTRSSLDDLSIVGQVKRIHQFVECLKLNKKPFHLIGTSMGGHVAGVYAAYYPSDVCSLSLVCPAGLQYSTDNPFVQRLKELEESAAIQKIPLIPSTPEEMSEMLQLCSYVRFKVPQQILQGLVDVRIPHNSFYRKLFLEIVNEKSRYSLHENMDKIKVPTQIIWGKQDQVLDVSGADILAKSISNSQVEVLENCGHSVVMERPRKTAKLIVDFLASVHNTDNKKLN
Sequence of MAGL (Homo sapiens (Human), UniProt Q99685) (Q99685 whole entry): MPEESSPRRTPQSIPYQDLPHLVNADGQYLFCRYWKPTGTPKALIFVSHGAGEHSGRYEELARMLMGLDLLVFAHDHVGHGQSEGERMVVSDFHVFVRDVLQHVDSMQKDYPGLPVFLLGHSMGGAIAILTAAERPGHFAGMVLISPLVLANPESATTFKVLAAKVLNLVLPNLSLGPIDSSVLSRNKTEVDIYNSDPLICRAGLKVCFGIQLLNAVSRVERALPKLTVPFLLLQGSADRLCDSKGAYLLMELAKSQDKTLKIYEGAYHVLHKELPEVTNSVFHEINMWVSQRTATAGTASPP
T3 sequence (O35678 whole entry): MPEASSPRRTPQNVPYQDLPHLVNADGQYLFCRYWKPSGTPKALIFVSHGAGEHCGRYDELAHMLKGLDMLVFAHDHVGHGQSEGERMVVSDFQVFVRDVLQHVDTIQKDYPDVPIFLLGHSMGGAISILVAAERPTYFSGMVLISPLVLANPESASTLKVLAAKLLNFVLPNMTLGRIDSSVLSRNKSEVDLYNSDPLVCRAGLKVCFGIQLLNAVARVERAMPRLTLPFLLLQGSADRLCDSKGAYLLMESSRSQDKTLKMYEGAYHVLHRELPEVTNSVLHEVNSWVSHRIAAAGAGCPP
T1 sequence (O08914 whole entry): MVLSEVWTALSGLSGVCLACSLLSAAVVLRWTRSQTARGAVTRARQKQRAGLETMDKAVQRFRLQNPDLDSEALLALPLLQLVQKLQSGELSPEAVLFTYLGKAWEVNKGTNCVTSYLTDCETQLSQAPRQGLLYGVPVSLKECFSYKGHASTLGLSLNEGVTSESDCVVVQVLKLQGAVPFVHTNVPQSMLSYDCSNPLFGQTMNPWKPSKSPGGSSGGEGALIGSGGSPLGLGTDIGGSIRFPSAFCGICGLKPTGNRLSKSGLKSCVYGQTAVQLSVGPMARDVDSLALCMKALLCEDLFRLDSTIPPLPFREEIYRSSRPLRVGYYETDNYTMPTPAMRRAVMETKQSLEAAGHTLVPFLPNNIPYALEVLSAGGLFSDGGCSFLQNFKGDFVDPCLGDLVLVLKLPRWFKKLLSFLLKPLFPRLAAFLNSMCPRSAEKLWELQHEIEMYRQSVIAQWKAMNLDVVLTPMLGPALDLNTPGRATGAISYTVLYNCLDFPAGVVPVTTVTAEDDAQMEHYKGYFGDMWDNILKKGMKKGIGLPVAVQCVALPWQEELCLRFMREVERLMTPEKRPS

SMILES	inhibition at 1 µM [1]	IC50 [1]	ABHD6 % Inh 5 mg/kg (mouse) [2]	IC50 [3]	FAAH % Inh 5 mg/kg (mouse) [4]	MAGL % Inh 5 mg/kg (mouse) [5]	inhibition at 1 µM [6]	IC50 [6]	inhibition at 1 µM [7]	IC50 [7]
CN(C)C(=O)C1CCN(c2cc(C(F)(F)F)ccc2CN2CCCC23CCN(C(=O)OC(C(F)(F)F)C(F)(F)F)CC3)CC1 [Example 16, 1,1,1,3,3,3-Hexafluoropropan-2-yl 1-(2-(4-(dimethylcarbamoyl)piperidin-1-yl)-4-(trifluoromethyl)benzyl)-1,8-diazaspiro[4.5]decane-8-carboxylate]	< 25%	> 1000 nM	# (# is <25%)	< 100 nM	# (# is <25%)	# (# is <25%)	< 25%	> 1000 nM	> 75%	< 100 nM
O=C(OC(C(F)(F)F)C(F)(F)F)N1CCC2(CCCN2Cc2ccc(C(F)(F)F)cc2N2CCN(CCF)CC2)CC1 [Example 20, 1,1,1,3,3,3-Hexafluoropropan-2-yl 1-(2-(4-(2-fluoroethyl)piperazin-1-yl)-4-(trifluoromethyl)benzyl)-1,8-diazaspiro[4.5]decane-8-carboxylate]		> 1000 nM	# (# is <25%)	< 100 nM	# (# is <25%)	## (## is equal to or greater than 25% but less than 75%)		> 1000 nM		< 100 nM
CN1CCCc2ccc(CN3CCCC34CCN(C(=O)OC(C(F)(F)F)C(F)(F)F)CC4)cc21 [Example 68, 1,1,1,3,3,3-Hexafluoropropan-2-yl 1-((1-methyl-1,2,3,4-tetrahydroquinolin-7-yl)methyl)-1,8-diazaspiro[4.5]decane-8-carboxylate]	< 25%	> 1000 nM	# (# is <25%)	< 100 nM	# (# is <25%)	### (### is ≥75%)	< 25%	> 1000 nM	> 75%	< 100 nM
O=C(O)C1CCN(c2cc(C(F)(F)F)ccc2CN2CCC3(CCN(C(=O)OC(C(F)(F)F)C(F)(F)F)CC3)C2)CC1 [Example 119, 1-(2-((8-(((1,1,1,3,3,3-Hexafluoropropan-2-yl)oxy)carbonyl)-2,8-diazaspiro[4.5]decan-2-yl)methyl)-5-(trifluoromethyl)phenyl)piperidine-4-carboxylic acid]	< 25%	> 1000 nM	### (### is ≥75%)	< 100 nM	# (# is <25%)	### (### is ≥75%)	≥ 75%	100 to 1000 nM	> 75%	< 100 nM
O=C(O)C1CCN(c2cc(Cl)ccc2CN2CCCC23CCN(C(=O)OC(C(F)(F)F)C(F)(F)F)CC3)CC1 [Example 120, 1-(5-Chloro-2-((8-(((1,1,1,3,3,3-hexafluoropropan-2-yl)oxy)carbonyl)-1,8-diazaspiro[4.5]decan-1-yl)methyl)phenyl)piperidine-4-carboxylic acid]	< 25%	> 1000 nM	# (# is <25%)	< 100 nM	# (# is <25%)	### (### is ≥75%)	< 25%	> 1000 nM	> 75%	< 100 nM
O=C(O)C1CCN(c2cc(C(F)(F)F)ccc2CN2CCCC23CCN(C(=O)OC(C(F)(F)F)C(F)(F)F)CC3)CC1 [Example 121, 1-(2-((8-(((1,1,1,3,3,3-Hexafluoropropan-2-yl)oxy)carbonyl)-1,8-diazaspiro[4.5]decan-1-yl)methyl)-5-(trifluoromethyl)phenyl)piperidine-4-carboxylic acid]	< 25%	> 1000 nM	# (# is <25%)	< 100 nM	# (# is <25%)	### (### is ≥75%)	< 25%	> 1000 nM	> 75%	< 100 nM
O=C(O)C1CCN(c2cc(Cl)cc(CN3CCCC34CCN(C(=O)OC(C(F)(F)F)C(F)(F)F)CC4)c2)CC1 [Example 122, 1-(3-Chloro-5-((8-(((1,1,1,3,3,3-hexafluoropropan-2-yl)oxy)carbonyl)-1,8-diazaspiro[4.5]decan-1-yl)methyl)phenyl)piperidine-4-carboxylic acid]	< 25%	> 1000 nM	## (## is equal to or greater than 25% but less than 75%)	< 100 nM	## (## is equal to or greater than 25% but less than 75%)	### (### is ≥75%)	< 25%	> 1000 nM	> 75%	< 100 nM
